Experimental data as given in ChEMBL document CHEMBL1759873, “Novel thiolactone-isatin hybrids as potential antimalarial and antitubercular agents” (Bioorg Med Chem Lett, 2011).
In brackets after ≈: the same amount, converted by molar mass.

Columns and labels:
[1] = Inhibition of Plasmodium falciparum W2 recombinant falcipain-2
[2] = system: Mycobacterium tuberculosis; assay: Antitubercular activity against Mycobacterium tuberculosis H37Rv by microplate alamar blue assay; assay type: functional
[3] = system: Mycobacterium tuberculosis; assay: Antitubercular activity against Mycobacterium tuberculosis H37Rv at 10 ug/ml by BACTEC radiometric susceptibility assay; assay type: functional
[4] = system: Mycobacterium tuberculosis; assay: Antitubercular activity against Mycobacterium tuberculosis H37Rv at 1 ug/ml by BACTEC radiometric susceptibility assay; assay type: functional
[5] = system: Plasmodium falciparum; assay: Antiplasmodial activity against Plasmodium falciparum W2; assay type: functional, organism-based
[6] = system: Mycobacterium tuberculosis; assay: Antitubercular activity against Mycobacterium tuberculosis H37Rv by LORA assay; assay type: functional

SMILES | IC50 [1] [µM] | MIC [2] [µM] | inhibition at 10 µg/mL [3] [%] | inhibition at 1 µg/mL [4] [%] | IC50 [5] [µM] | MIC [6] [µM]
CC1=C2OCCCCN3C(=O)C(O)(c4cc(Cl)ccc43)C2(C)SC1=O (stereo not drawn) | > 100 | > 128 | 15.3 | 13.4 | > 20 | 
CC1=C2OCCCCN3C(=O)C(O)(c4cc(F)ccc43)C2(C)SC1=O (stereo not drawn) | > 100 | > 128 | 1.3 | 4.9 | > 20 | 
NNC(=O)c1ccncc1 [ISONIAZID] |  | 0.37 (≈ 0.0507 µg/mL) |  |  |  | > 128
CC1=C2OCCCCN3C(=O)C(O)(c4ccccc43)C2(C)SC1=O (stereo not drawn) | > 100 | > 128 | 18.1 | 17 | > 20 | 
COc1c(N2C[C@@H]3CCCN[C@@H]3C2)c(F)cc2c(=O)c(C(=O)O)cn(C3CC3)c12 [MOXIFLOXACIN] |  | 0.29 (≈ 0.116 µg/mL) |  |  |  | 31.1 (≈ 12.5 µg/mL)
CC1=C2OCCCCCCN3C(=O)C(O)(c4ccccc43)C2(C)SC1=O (stereo not drawn) | > 100 | > 128 | 18.5 | 9.4 | 11.5 | 
CC1=C2OCCCCCN3C(=O)C(O)(c4cc(Br)ccc43)C2(C)SC1=O (stereo not drawn) | 10.1 | > 128 | -21.1 | -26 | > 20 | 
O=C1C(=O)N(CCCCCBr)c2ccccc21 | > 100 | 23.2 (≈ 6.87 µg/mL) | 34.8 | -22.1 | > 20 | 44.4 (≈ 13.1 µg/mL)
CC1=C(OCCN2C(=O)C(=O)c3ccccc32)C(C)SC1=O (stereo not drawn) | 40.2 | > 128 | 34.7 | 31.7 | > 20 | 
CC1=C2OCCCCCCN3C(=O)C(O)(c4cc(Br)ccc43)C2(C)SC1=O (stereo not drawn) | 83.4 | > 128 | -0.5 | 8.1 | 6.93 | 
CC1=C2OCCCCCN3C(=O)C(O)(c4cc(I)ccc43)C2(C)SC1=O (stereo not drawn) | > 100 | > 128 | -40.7 | -39.7 | > 20 | 
CC1=C2OCCCCCCN3C(=O)C(O)(c4cc(I)ccc43)C2(C)SC1=O (stereo not drawn) | 48.3 | > 128 | -40 | -34 | 6.92 | 
O=C1C(=O)N(CCCCCCBr)c2ccc(F)cc21 |  | 62.3 (≈ 20.4 µg/mL) |  |  |  | 31.5 (≈ 10.3 µg/mL)
CC1=C2OCCCCCN3C(=O)C(O)(c4ccccc43)C2(C)SC1=O (stereo not drawn) | > 100 | > 128 | 32.6 | 21.9 | > 20 | 
O=C1C(=O)N(CCCCBr)c2ccccc21 | > 100 | 96.5 (≈ 27.2 µg/mL) |  |  | > 20 | 28.8 (≈ 8.13 µg/mL)
CC1=C(OCCN2C(=O)C(=O)c3cc(Cl)ccc32)C(C)SC1=O (stereo not drawn) | 47.8 | 63.7 (≈ 22.4 µg/mL) | 9.9 | -2.8 | > 20 | 117 (≈ 41.2 µg/mL)
CC1=C2OCCCCCN3C(=O)C(O)(c4cc(Cl)ccc43)C2(C)SC1=O (stereo not drawn) | > 100 | > 128 | -15.2 | 0 | > 20 | 
Cc1ccc2c(c1)C(=O)C(=O)N2CCCCBr | > 100 | 62.7 (≈ 18.6 µg/mL) |  |  | > 20 | 53.2 (≈ 15.8 µg/mL)
CC1=C(OCCCCCCN2C(=O)C(=O)c3ccccc32)C(C)SC1=O (stereo not drawn) | 32 | > 128 | 36.4 | 27.7 | 12.3 | 
CC1=C2OCCCCN3C(=O)C(O)(c4cc(Br)ccc43)C2(C)SC1=O (stereo not drawn) | > 100 | > 128 | 5.1 | -16.2 | > 20 | 
O=C1C(=O)N(CCCCBr)c2ccc(I)cc21 | > 100 | 15.5 (≈ 6.32 µg/mL) |  |  | > 20 | 57.1 (≈ 23.3 µg/mL)
O=C1C(=O)N(CCBr)c2ccccc21 | > 100 | > 128 |  |  | > 20 | 
C=C/C(C)=C/[C@@]1(C)SC(=O)C(C)=C1O [THIOLACTOMYCIN] | > 100 | > 128 | 58.6 | -3.8 | > 20 | 
